According to US7265139B2, “RXR activating molecules” (Incyte San Diego Inc., priority 2001, dated 2007):

What was measured:
BALB/c mice = assay: Effect on serum triglyceride levels in wild type BALB/c mice; assay type: in vivo, mouse; details: FIG. 12
Description: The animals were treated with a single daily oral dose of the test compound suspended in sesame oil (dose volume of 5 ml/kg). […], Animas treated with 10 and 30 mg/kg of Compound 1, which are doses that are 30 and 100 times the efficacious does in diabetic db/db mice, respectively, caused no increase in serum triglyceride levels compared to vehicle treated control animals.
Test compounds are tested in wild type mice at 10-100 times the efficacious dose in diabetic mice. Typically, adult male BALB/c mice are housed in a fixed 12—12-hr artificial light-dark cycle, and maintained on a standard rodent diet. The animals are treated with a single daily oral dose of the test compound suspended in sesame oil (dose volume of 5 ml/kg) as also described in the examples. Approximately two weeks later the animals are bled from the tail vein, then necropsied following sacrifice by carbon dioxide asphyxiation. Several serum biochemical parameters are measured. Of special significance is the effect the selected compounds have on serum triglyceride levels compared to vehicle treated control animals.
For these studies, adult male BALB/c mice were housed in a fixed 12—12-hr artificial light-dark cycle, and maintained on a standard rodent diet. The animals were treated with a single daily oral dose of the test compound suspended in sesame oil (dose volume of 5 ml/kg).

RXR receptor = molecular target: T1, RXR receptor (Homo sapiens, UniProt P19793); assay: RXR activation (transient transfection reporter assay); assay type: cell-based; details: 1 μM compared to 9-cis-RA at equal concentration
T1 construct: expressed in transfected cells
T1 sequence (P19793 1-462): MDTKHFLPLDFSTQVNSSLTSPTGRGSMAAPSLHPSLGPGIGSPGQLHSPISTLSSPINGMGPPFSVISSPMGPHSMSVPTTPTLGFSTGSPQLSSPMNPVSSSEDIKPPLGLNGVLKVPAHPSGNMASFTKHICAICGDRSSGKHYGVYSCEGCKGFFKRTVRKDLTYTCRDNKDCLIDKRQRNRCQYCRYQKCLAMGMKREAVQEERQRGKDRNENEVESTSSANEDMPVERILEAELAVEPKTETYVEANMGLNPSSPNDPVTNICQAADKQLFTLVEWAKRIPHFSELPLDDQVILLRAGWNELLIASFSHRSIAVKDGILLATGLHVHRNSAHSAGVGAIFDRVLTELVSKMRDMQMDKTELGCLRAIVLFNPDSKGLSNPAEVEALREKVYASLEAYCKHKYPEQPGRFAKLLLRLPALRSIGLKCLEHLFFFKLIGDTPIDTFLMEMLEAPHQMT
Description: RXR agonists activate the RXR receptor when interacting with RXR by binding to its binding pocket. This activation can be independent of whether the agonist, while interacting with portions of the ligand binding pocket, also interacts with side pocket 1. Activation, also often referred to as transcriptional activation, of RXR by agonists can be measured by a number of commonly used assays where the effect of the agonist ligand interacting with the RXR ligand binding pocket is to stimulate or induce transcription of a gene or genes in a cell. In one particular embodiment, transient transfection experiments (as described essentially by Zhang, et al. (1996) Negative Regulation of Peroxisome Proliferator—Activated Receptor—γ Gene Expression Contributes to the Antiadipogenic effects of Tumor Necrosis Factor—α. Mol. Endo. 10:1457-1456) can be used. In these cases, full length RXR proteins are expressed in living cells. Alternatively, hybrid proteins that contain a portion of another DNA binding domain and the ligand binding portion of the human RXRα receptor can be expressed in living cells instead of the full length RXR protein. Such hybrid proteins can bind to and activate specific reporter genes introduced into the same living cell and activation of such reporter genes is measured. The assays described here are very commonly used today by people skilled in the art of molecular biology experimenting. Transient transection assays are often used instead of ligand binding assays and can serve to measure or estimate an affinity of an RXR agonist ligand for RXR protein. The effective dose fifty (ED50, also called EC50) is the concentration of the ligand necessary to lead to one half maximal activation of the reporter gene in a living cell. Compounds that show 60% of the activity of the agonist 9-cis retenoic acid at 10^−6 M can be considered an RXR activator/agonist. Compounds which show 70% 80% 90% of the activity of the agonist 9-cis retinoic acid are also provided.
To confirm that the computer modeling/design of a compound does result in an RXR activator or RXR agonist, i.e. a compound that leads to RXR activation or transcriptional activation, commonly used assays can be applied, where the effect of the agonist or activator, interacting with the RXR ligand binding pocket is to stimulate or induce transcription of a gene or genes in a cell. In one particular embodiment, transient transfection experiments (as described essentially by Zhang, et al. (1996) Negative Regulation of Peroxisome Proliferator—Activated Receptor—γ Gene Expression Contributes to the Antiadipogenic effects of Tumor Necrosis Factor—α. Mol. Endo. 10:1457-1456) can be used. In these cases, full length RXR proteins are expressed in living cells. Alternatively, hybrid proteins that contain a portion of another DNA, binding domain and the ligand binding portion of the human RXRα receptor can be expressed in living cells instead of the fall length RXR protein. Such hybrid proteins can bind to and activate specific reporter genes introduced into the same living cell and activation of such reporter genes is measured (Brand, A. H. & Perrimon, 1993, Development, 118:401-415; Moya-Camarena, S. Y. et.al., 1999, J. Lipid Res., 40:1426:1433; Yi, Y. W. et al., 2000, Biochem. Biophys. Res. Commun., 272:193-198, each are herein incorporated by reference at least for material related to reporter assays). These assays not only measure binding of the ligand to its target, which could also be measured by an in vitro binding assay, but also measure the agonistic or activator activity of the compound. In such an assay, new compounds are compared to a standard activator like compound I or the natural agonist of RXR: 9-cis retinoic acid (see Example 7). For instance, all compounds that show at a given concentration at least 60% of the activity of 9-cis retinoic acid can be considered useful activators.

Cc1cc2c(cc1-c1cc(C=C3SC(=O)NC3=O)ccc1OC(F)(F)F)C(C)(C)CCC2(C)C [Compound 1]
serum triglyceride levels compared to vehicle treated control animals (BALB/c mice; 10 and 30 mg/kg, daily oral, 14 days): no increase
triglyceride levels compared to vehicle treated controls (BALB/c mice; 10 and 30 mg/kg/day for 10 days): does not change
RXR Activation (RXR receptor): 110%
